The source of these data is PubChem BioAssay (NCI).

Among the test systems are M19-MEL melanoma; DMS 273 small cell lung; DMS 114 small cell lung; SNB-78 CNS; RXF-631 renal; XF 498 CNS; HOP-18 NSCLC.
Holding throughout (assay): NCI tumour cell line growth inhibition, 48 h

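Following 48 hours of exposure in 96-well plates, responses at five concentrations were used to interpolate endpoints linearly. At the GI50, growth is halved. Definition used: TGI = concentration required for complete inhibition of growth.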

Turning to `N#Cc1cccc(-n2[nH]c(=O)ccc2=O)c1`, the TGI in the experiment with M19-MEL melanoma, in the experiment with DMS 273 small cell lung and in the experiment on DMS 114 small cell lung was above 100 µM in each case.

Take `CCNC(=O)c1ccc(C)c(N=NN(C)C)c1`: the TGI in the experiment on SNB-78 CNS, in the experiment with M19-MEL melanoma and with DMS 273 small cell lung was above 100 µM each time.

Take `O=c1[nH]c2cc(Cl)ccc2nc1/C(=N\Nc1ccccc1)C(O)c1ccc(Cl)c(Cl)c1` (stereo not given): the TGI in the experiment on SNB-78 CNS, in the experiment with M19-MEL melanoma, in the experiment on DMS 273 small cell lung, with DMS 114 small cell lung and with RXF-631 renal was above 100 µM each time.

For the compound `CON(C)C(=O)C(Cc1ccccc1)NC(=O)OCc1ccccc1` (stereo not given), the TGI in the experiment with SNB-78 CNS, with M19-MEL melanoma, with DMS 273 small cell lung, in the experiment on DMS 114 small cell lung and with XF 498 CNS was above 100 µM in each case.

As to `COc1cc2c(cc1O)[C@H](C)C(c1ccc(OC)c(OC)c1)O2` (stereo not given in full), the TGI amounted to 64.7 µM in the experiment on SNB-78 CNS; 12.2 µM with M19-MEL melanoma; 15.4 µM in the experiment on DMS 273 small cell lung; 13.8 µM in the experiment on DMS 114 small cell lung; 21.8 µM with XF 498 CNS; 20 µM in the experiment on HOP-18 NSCLC.

With `COc1ccc(C2Oc3cc(OC)c(OC)cc3C2CCl)cc1OC` (stereo not given), the TGI with M19-MEL melanoma, in the experiment on DMS 273 small cell lung, in the experiment on DMS 114 small cell lung and with XF 498 CNS was above 100 µM in each case.

On to `COc1cc(-c2cccs2)sc1-c1cccs1`, for which the TGI is above 100 µM in the experiment on SNB-78 CNS; above 100 µM with M19-MEL melanoma; above 100 µM with DMS 273 small cell lung; 94.3 µM with DMS 114 small cell lung; 17.2 µM in the experiment with HOP-18 NSCLC.

For the compound `O=C(CC1Sc2ccccc2NC1=O)Nc1ccccc1[N+](=O)[O-]` (stereo not given), the TGI in the experiment with SNB-78 CNS, with M19-MEL melanoma, in the experiment with DMS 273 small cell lung, in the experiment with XF 498 CNS, with RXF-631 renal and in the experiment with HOP-18 NSCLC was above 100 µM throughout.

As for `O=C1C(Br)=C(Br)C(=O)c2ccc(=O)ccc21`, the TGI with SNB-78 CNS is above 100 µM; in the experiment with M19-MEL melanoma it was 32.5 µM; in the experiment on DMS 273 small cell lung it was above 100 µM; in the experiment with DMS 114 small cell lung, 39.2 µM; with XF 498 CNS it was 43.2 µM; in the experiment with RXF-631 renal, 39.7 µM. In addition, the TGI in the experiment on HOP-18 NSCLC is 57 µM.

As to `O=c1cc(-c2ccc3c(c2)OCO3)[nH]c2cc3c(cc12)OCO3`, the TGI in the experiment on SNB-78 CNS is above 100 µM; with M19-MEL melanoma, 78.2 µM; with DMS 273 small cell lung it was above 100 µM; in the experiment on DMS 114 small cell lung it was 96.1 µM; in the experiment on XF 498 CNS, above 100 µM; with HOP-18 NSCLC, above 100 µM. Moreover, in the experiment on DMS 114 small cell lung, the GI50 was 24 µM.

`O=C(Nc1c(O)[nH]c(=S)[nH]c1=O)c1ccccc1`: the TGI in the experiment on SNB-78 CNS, in the experiment on M19-MEL melanoma, in the experiment on DMS 114 small cell lung and in the experiment on HOP-18 NSCLC was above 100 µM each time.

As for `COc1cc(C2C(Cl)C(=O)N2n2cnc3ccccc3c2=O)ccc1O` (stereo not given), the TGI in the experiment with SNB-78 CNS, with M19-MEL melanoma, in the experiment on DMS 273 small cell lung, in the experiment with DMS 114 small cell lung and in the experiment with HOP-18 NSCLC was above 100 µM each time.
